Test results from PubChem BioAssay AID1963846 (Molecular Pharmacology Branch, DTP, NCI, 2024).

Tested on: 454973-116-R2-J3-PDC complex spheroid viability
Test: Anticancer human tumor 454973-116-R2-J3-PDC patient-derived pancreatic carcinoma cell line growth inhibition [POLQ]
Settings: for IC50: curve of first compound; for viability, T/C: stronger effect = lower value
How it was run: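 Three-cell-type spheroids modelling solid tumor plus stroma served as the readout system; POL inhibitors were tested individually and in combination, concentration ranges set by clinical Cmax where known.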

[1] = second compound 0.0316 µM, first compound 0.0316 µM
[2] = second compound 0.0316 µM, first compound 0.1 µM
[3] = second compound 0.0316 µM, first compound 0.316 µM
[4] = second compound 0.0316 µM, first compound 1 µM
[5] = second compound 0.0316 µM, first compound 3.16 µM
[6] = second compound 0.0316 µM, first compound 10 µM
[7] = second compound 0.1 µM, first compound 0.0316 µM
[8] = second compound 0.1 µM, first compound 0.1 µM
[9] = second compound 0.1 µM, first compound 0.316 µM
[10] = second compound 0.1 µM, first compound 1 µM
[11] = second compound 0.1 µM, first compound 3.16 µM
[12] = second compound 0.1 µM, first compound 10 µM
[13] = second compound 0.316 µM, first compound 0.0316 µM
[14] = second compound 0.316 µM, first compound 0.1 µM
[15] = second compound 0.316 µM, first compound 0.316 µM
[16] = second compound 0.316 µM, first compound 1 µM
[17] = second compound 0.316 µM, first compound 3.16 µM
[18] = second compound 0.316 µM, first compound 10 µM
[19] = second compound 1 µM, first compound 0.0316 µM
[20] = second compound 1 µM, first compound 0.1 µM
[21] = second compound 1 µM, first compound 0.316 µM
[22] = second compound 1 µM, first compound 1 µM
[23] = second compound 1 µM, first compound 3.16 µM
[24] = second compound 1 µM, first compound 10 µM
[25] = second compound 3.16 µM, first compound 0.0316 µM
[26] = second compound 3.16 µM, first compound 0.1 µM
[27] = second compound 3.16 µM, first compound 0.316 µM
[28] = second compound 3.16 µM, first compound 1 µM
[29] = second compound 3.16 µM, first compound 3.16 µM
[30] = second compound 3.16 µM, first compound 10 µM
[31] = second compound 10 µM, first compound 0.0316 µM
[32] = second compound 10 µM, first compound 0.1 µM
[33] = second compound 10 µM, first compound 0.316 µM
[34] = second compound 10 µM, first compound 1 µM
[35] = second compound 10 µM, first compound 3.16 µM
[36] = second compound 10 µM, first compound 10 µM
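Further: spheroids exposed to drugs for seven days before measurement.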
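Wherever viability, T/C is given: percent viability relative to DMSO vehicle control wells taken as 100%.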

Molecule `CC(C)n1c(=O)n(C)c2cnc3cc(F)c(-c4ccc(OCCCN5CCCCC5)nc4)cc3c21` + COC1C(OC(N)=O)C(O)C(Oc2ccc3c(O)c(NC(=O)c4ccc(O)c(CC=C(C)C)c4)c(=O)oc3c2C)OC1(C)C has an IC50 (second compound 0.0316 µM) of over 10 µM, an IC50 (second compound 0.1 µM) of over 10 µM and an IC50 (second compound 0.316 µM) of over 10 µM. The IC50 (second compound 1 µM) was over 10 µM, the IC50 (second compound 3.16 µM) was over 10 µM and the IC50 (second compound 10 µM) was over 10 µM. For the same molecule, the viability, T/C [1] was 99.5%, the viability, T/C [2] was 108% and the viability, T/C [3] was 114%. It also gave a viability, T/C [4] of 110%, a viability, T/C [5] of 111% and a viability, T/C [6] of 85.9%. The viability, T/C [7] was 107%, the viability, T/C [8] was 112% and the viability, T/C [9] was 108%. The viability, T/C [10] was 114%, the viability, T/C [11] was 93.7% and the viability, T/C [12] was 95.6%. For the same molecule, the viability, T/C [13] was 115%, the viability, T/C [14] was 113% and the viability, T/C [15] was 113%. It also gave a viability, T/C [16] of 116%, a viability, T/C [17] of 105% and a viability, T/C [18] of 88%. It also gave a viability, T/C [19] of 116%, a viability, T/C [20] of 107% and a viability, T/C [21] of 115%. The viability, T/C [22] was 112%, the viability, T/C [23] was 100% and the viability, T/C [24] was 93.8%. For the same molecule, the viability, T/C [25] was 118%, the viability, T/C [26] was 107% and the viability, T/C [27] was 112%. For the same molecule, the viability, T/C [28] was 116%, the viability, T/C [29] was 106% and the viability, T/C [30] was 92.5%. It also gave a viability, T/C [31] of 120%, a viability, T/C [32] of 103% and a viability, T/C [33] of 101%. For the same molecule, the viability, T/C [34] was 107%, the viability, T/C [35] was 101% and the viability, T/C [36] was 84.9%.

Work on `CC1COCCN1c1cc(C2(S(C)(=N)=O)CC2)nc(-c2ccnc3[nH]ccc23)n1` (stereo not drawn) + COC1C(OC(N)=O)C(O)C(Oc2ccc3c(O)c(NC(=O)c4ccc(O)c(CC=C(C)C)c4)c(=O)oc3c2C)OC1(C)C yielded an IC50 (second compound 0.0316 µM) of 5.99 µM, an IC50 (second compound 0.1 µM) of 6.04 µM and an IC50 (second compound 0.316 µM) of 7.3 µM. The IC50 (second compound 1 µM) was 6.19 µM, the IC50 (second compound 3.16 µM) was 6.15 µM and the IC50 (second compound 10 µM) was 6.05 µM. It also gave a viability, T/C [1] of 102%, a viability, T/C [2] of 104% and a viability, T/C [3] of 105%. It also gave a viability, T/C [4] of 102%, a viability, T/C [5] of 77.1% and a viability, T/C [6] of 28.1%. For the same molecule, the viability, T/C [7] was 107%, the viability, T/C [8] was 114% and the viability, T/C [9] was 101%. The viability, T/C [10] was 101%, the viability, T/C [11] was 71.8% and the viability, T/C [12] was 32.8%. For the same molecule, the viability, T/C [13] was 103%, the viability, T/C [14] was 110% and the viability, T/C [15] was 116%. It also gave a viability, T/C [16] of 105%, a viability, T/C [17] of 81.1% and a viability, T/C [18] of 38.3%. It also gave a viability, T/C [19] of 127%, a viability, T/C [20] of 104% and a viability, T/C [21] of 109%. The viability, T/C [22] was 109%, the viability, T/C [23] was 68.2% and the viability, T/C [24] was 37%. For the same molecule, the viability, T/C [25] was 118%, the viability, T/C [26] was 99.9% and the viability, T/C [27] was 101%. The viability, T/C [28] was 97.2%, the viability, T/C [29] was 75.8% and the viability, T/C [30] was 30.9%. For the same molecule, the viability, T/C [31] was 114%, the viability, T/C [32] was 97% and the viability, T/C [33] was 104%. For the same molecule, the viability, T/C [34] was 93.9%, the viability, T/C [35] was 74% and the viability, T/C [36] was 31.2%.

In the case of `COc1ccc([C@@H](O)c2cc(-c3ncnc4cc(N5CCOCC5)ccc34)c(F)cc2Cl)nn1` + COC1C(OC(N)=O)C(O)C(Oc2ccc3c(O)c(NC(=O)c4ccc(O)c(CC=C(C)C)c4)c(=O)oc3c2C)OC1(C)C, the IC50 (second compound 0.0316 µM) is reported as 9.5 µM, the IC50 (second compound 0.1 µM) is reported as over 10 µM and the IC50 (second compound 0.316 µM) is reported as over 10 µM. The IC50 (second compound 1 µM) was over 10 µM, the IC50 (second compound 3.16 µM) was over 10 µM and the IC50 (second compound 10 µM) was over 10 µM. The viability, T/C [1] was 97.9%, the viability, T/C [2] was 99.5% and the viability, T/C [3] was 99%. The viability, T/C [4] was 94.4%, the viability, T/C [5] was 75.2% and the viability, T/C [6] was 48.8%. For the same molecule, the viability, T/C [7] was 104%, the viability, T/C [8] was 106% and the viability, T/C [9] was 96.7%. The viability, T/C [10] was 98.2%, the viability, T/C [11] was 73.2% and the viability, T/C [12] was 52.5%. The viability, T/C [13] was 112%, the viability, T/C [14] was 107% and the viability, T/C [15] was 98.3%. For the same molecule, the viability, T/C [16] was 95%, the viability, T/C [17] was 71.7% and the viability, T/C [18] was 51.3%. For the same molecule, the viability, T/C [19] was 113%, the viability, T/C [20] was 102% and the viability, T/C [21] was 115%. It also gave a viability, T/C [22] of 103%, a viability, T/C [23] of 65.6% and a viability, T/C [24] of 51.4%. It also gave a viability, T/C [25] of 112%, a viability, T/C [26] of 107% and a viability, T/C [27] of 98.8%. The viability, T/C [28] was 88.3%, the viability, T/C [29] was 78.8% and the viability, T/C [30] was 54.2%. It also gave a viability, T/C [31] of 116%, a viability, T/C [32] of 93.3% and a viability, T/C [33] of 93.3%. It also gave a viability, T/C [34] of 83.5%, a viability, T/C [35] of 76.3% and a viability, T/C [36] of 50.6%.

Molecule `Cn1ncnc1[C@H]1c2n[nH]c(=O)c3cc(F)cc(c23)N[C@@H]1c1ccc(F)cc1` + COC1C(OC(N)=O)C(O)C(Oc2ccc3c(O)c(NC(=O)c4ccc(O)c(CC=C(C)C)c4)c(=O)oc3c2C)OC1(C)C has an IC50 (second compound 0.0316 µM) of over 0.1 µM, an IC50 (second compound 0.1 µM) of over 0.1 µM and an IC50 (second compound 0.316 µM) of over 0.1 µM. The IC50 (second compound 1 µM) was over 0.1 µM, the IC50 (second compound 3.16 µM) was over 0.1 µM and the IC50 (second compound 10 µM) was over 0.1 µM. It also gave a viability, T/C (second compound 0.0316 µM, first compound 0.000316 µM) of 100%, a viability, T/C (second compound 0.0316 µM, first compound 0.001 µM) of 111% and a viability, T/C (second compound 0.0316 µM, first compound 0.00316 µM) of 102%. The viability, T/C (second compound 0.0316 µM, first compound 0.01 µM) was 109%, the viability, T/C [1] was 95.1% and the viability, T/C [2] was 83.4%. It also gave a viability, T/C (second compound 0.1 µM, first compound 0.000316 µM) of 102%, a viability, T/C (second compound 0.1 µM, first compound 0.001 µM) of 112% and a viability, T/C (second compound 0.1 µM, first compound 0.00316 µM) of 105%. It also gave a viability, T/C (second compound 0.1 µM, first compound 0.01 µM) of 104%, a viability, T/C [7] of 98.5% and a viability, T/C [8] of 90.5%. It also gave a viability, T/C (second compound 0.316 µM, first compound 0.000316 µM) of 112%, a viability, T/C (second compound 0.316 µM, first compound 0.001 µM) of 114% and a viability, T/C (second compound 0.316 µM, first compound 0.00316 µM) of 105%. It also gave a viability, T/C (second compound 0.316 µM, first compound 0.01 µM) of 100%, a viability, T/C [13] of 93.5% and a viability, T/C [14] of 83.3%. For the same molecule, the viability, T/C (second compound 1 µM, first compound 0.000316 µM) was 109%, the viability, T/C (second compound 1 µM, first compound 0.001 µM) was 102% and the viability, T/C (second compound 1 µM, first compound 0.00316 µM) was 107%. It also gave a viability, T/C (second compound 1 µM, first compound 0.01 µM) of 102%, a viability, T/C [19] of 93.1% and a viability, T/C [20] of 82.5%. For the same molecule, the viability, T/C (second compound 3.16 µM, first compound 0.000316 µM) was 107%, the viability, T/C (second compound 3.16 µM, first compound 0.001 µM) was 111% and the viability, T/C (second compound 3.16 µM, first compound 0.00316 µM) was 104%. For the same molecule, the viability, T/C (second compound 3.16 µM, first compound 0.01 µM) was 100%, the viability, T/C [25] was 104% and the viability, T/C [26] was 88.9%. For the same molecule, the viability, T/C (second compound 10 µM, first compound 0.000316 µM) was 101%, the viability, T/C (second compound 10 µM, first compound 0.001 µM) was 96% and the viability, T/C (second compound 10 µM, first compound 0.00316 µM) was 98.3%. The viability, T/C (second compound 10 µM, first compound 0.01 µM) was 103%, the viability, T/C [31] was 87.2% and the viability, T/C [32] was 78.1%.
